Test results as given in patent publication US11166926B2 (priority 2018, dated 2021).
Values after ≈ are worked out from the molar mass of the structure shown. Values joined by “and” are separate entries in the source; they are usually repeats but may differ in a detail not shown here. Identical values can stand only once. Like-named read-outs stand apart in the source and are kept apart here.

Columns and labels:
TcdB [1] = biological target: T1, TcdB (Clostridioides difficile, UniProt P18177); test: cell-based; parameters: species or system C. difficile; conditions: for inhibition at 40 µM: IMR-90, read-out: inhibition of TcdB-induced cell rounding
Target sequence in this assay (P18177 2-2366 limits assumed): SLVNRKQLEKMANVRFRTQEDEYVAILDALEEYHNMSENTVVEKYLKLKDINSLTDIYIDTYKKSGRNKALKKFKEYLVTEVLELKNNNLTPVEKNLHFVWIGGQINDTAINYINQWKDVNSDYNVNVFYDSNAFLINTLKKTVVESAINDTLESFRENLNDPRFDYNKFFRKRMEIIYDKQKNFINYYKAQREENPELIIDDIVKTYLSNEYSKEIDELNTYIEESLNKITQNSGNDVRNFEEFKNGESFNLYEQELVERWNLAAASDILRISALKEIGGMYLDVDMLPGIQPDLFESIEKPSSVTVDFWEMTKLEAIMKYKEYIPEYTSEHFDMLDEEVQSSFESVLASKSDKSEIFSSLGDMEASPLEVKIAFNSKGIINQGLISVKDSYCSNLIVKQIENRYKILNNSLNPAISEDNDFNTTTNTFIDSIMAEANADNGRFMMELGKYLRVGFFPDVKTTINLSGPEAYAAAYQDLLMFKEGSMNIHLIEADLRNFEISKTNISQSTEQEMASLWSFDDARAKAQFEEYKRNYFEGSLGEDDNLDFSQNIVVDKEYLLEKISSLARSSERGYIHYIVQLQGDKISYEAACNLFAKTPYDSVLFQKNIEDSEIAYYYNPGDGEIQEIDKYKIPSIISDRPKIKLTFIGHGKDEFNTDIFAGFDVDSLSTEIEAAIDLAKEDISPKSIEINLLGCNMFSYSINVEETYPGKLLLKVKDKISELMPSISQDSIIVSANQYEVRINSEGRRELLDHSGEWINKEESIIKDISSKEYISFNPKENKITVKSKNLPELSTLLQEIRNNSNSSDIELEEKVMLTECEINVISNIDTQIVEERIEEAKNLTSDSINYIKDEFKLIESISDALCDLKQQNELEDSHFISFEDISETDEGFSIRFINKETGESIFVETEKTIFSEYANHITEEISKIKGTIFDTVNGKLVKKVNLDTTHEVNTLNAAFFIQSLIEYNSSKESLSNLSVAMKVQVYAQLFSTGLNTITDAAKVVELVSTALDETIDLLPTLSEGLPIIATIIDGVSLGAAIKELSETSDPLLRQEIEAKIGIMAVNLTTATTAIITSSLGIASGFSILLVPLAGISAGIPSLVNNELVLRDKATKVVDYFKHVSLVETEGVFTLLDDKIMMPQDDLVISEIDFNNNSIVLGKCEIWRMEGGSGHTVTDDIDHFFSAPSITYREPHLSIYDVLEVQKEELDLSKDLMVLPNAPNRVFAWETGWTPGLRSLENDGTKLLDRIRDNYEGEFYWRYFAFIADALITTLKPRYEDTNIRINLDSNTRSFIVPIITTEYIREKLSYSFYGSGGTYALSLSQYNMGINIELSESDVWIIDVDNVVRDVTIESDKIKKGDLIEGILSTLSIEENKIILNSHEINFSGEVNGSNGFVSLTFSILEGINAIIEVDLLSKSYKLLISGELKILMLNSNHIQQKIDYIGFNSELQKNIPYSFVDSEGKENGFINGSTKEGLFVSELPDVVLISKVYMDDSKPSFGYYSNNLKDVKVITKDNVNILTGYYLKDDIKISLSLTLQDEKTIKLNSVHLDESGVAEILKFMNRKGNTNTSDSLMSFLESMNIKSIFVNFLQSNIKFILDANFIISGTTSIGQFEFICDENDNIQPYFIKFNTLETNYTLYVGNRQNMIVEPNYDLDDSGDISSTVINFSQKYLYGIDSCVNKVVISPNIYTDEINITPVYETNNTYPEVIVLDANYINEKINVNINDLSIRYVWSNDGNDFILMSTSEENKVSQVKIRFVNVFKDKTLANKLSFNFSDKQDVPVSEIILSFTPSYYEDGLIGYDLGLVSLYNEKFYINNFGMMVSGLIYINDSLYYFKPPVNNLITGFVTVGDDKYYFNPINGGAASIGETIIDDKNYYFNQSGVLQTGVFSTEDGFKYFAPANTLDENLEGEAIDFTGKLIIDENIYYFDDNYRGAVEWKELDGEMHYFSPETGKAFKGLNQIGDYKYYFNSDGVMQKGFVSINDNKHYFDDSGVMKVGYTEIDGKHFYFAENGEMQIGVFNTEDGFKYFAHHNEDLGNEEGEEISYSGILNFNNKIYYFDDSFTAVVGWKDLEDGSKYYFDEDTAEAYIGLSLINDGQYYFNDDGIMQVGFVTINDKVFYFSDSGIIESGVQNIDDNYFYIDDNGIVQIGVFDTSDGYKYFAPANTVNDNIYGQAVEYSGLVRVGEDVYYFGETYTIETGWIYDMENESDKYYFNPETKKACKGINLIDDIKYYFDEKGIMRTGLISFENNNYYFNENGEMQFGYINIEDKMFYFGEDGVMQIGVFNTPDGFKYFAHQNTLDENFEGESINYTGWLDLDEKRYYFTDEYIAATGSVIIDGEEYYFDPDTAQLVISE

TcdB [2] = biological target: T1, TcdB
Target sequence in this assay (P18177 2-2366 limits assumed): as above
Protocol: Loss of cellular ATP as a marker of high dose (1 nM) TcdB toxicity was measured as described for the Arrayscan screen protocol, except that CellTiter-Glo reagent (Promega, Madison, Wis.) was added to the cells 3 h post toxin challenge, and luminescence was recorded on a Spectramax M5 plate reader.

TcdB [3] = biological target: T1, TcdB; remark: listed apart in the source
Protocol: TcdB protein was diluted in phosphate buffer (100 mM KPO4, 150 mM NaCl, pH 7) containing 5×SYPRO Orange (Invitrogen, Burlington, ON) and a serial dilution of test compound. A Biorad CFX96 qRT-PCR thermocycler was used to establish a temperature gradient from 15° C. to 95° C. in 30 s increments, while simultaneously recording the increase in SYPRO Orange fluorescence as a consequence of binding to hydrophobic regions exposed on unfolded proteins. The Bio-Rad CFX Manager 3.1 software was used to integrate the fluorescence curves to calculate the melting point.

TcdA = biological target: T2, TcdA (Clostridioides difficile, UniProt P16154); test: cell-based; type: cell-based, C. difficile; conditions: for IC50: IC50 TcdA, means ± s.d.
T2 construct: made in house; host or cells: Bacillus megaterium (the general sentence on recombinant toxins)
T2 sequence (P16154 whole entry, looked up): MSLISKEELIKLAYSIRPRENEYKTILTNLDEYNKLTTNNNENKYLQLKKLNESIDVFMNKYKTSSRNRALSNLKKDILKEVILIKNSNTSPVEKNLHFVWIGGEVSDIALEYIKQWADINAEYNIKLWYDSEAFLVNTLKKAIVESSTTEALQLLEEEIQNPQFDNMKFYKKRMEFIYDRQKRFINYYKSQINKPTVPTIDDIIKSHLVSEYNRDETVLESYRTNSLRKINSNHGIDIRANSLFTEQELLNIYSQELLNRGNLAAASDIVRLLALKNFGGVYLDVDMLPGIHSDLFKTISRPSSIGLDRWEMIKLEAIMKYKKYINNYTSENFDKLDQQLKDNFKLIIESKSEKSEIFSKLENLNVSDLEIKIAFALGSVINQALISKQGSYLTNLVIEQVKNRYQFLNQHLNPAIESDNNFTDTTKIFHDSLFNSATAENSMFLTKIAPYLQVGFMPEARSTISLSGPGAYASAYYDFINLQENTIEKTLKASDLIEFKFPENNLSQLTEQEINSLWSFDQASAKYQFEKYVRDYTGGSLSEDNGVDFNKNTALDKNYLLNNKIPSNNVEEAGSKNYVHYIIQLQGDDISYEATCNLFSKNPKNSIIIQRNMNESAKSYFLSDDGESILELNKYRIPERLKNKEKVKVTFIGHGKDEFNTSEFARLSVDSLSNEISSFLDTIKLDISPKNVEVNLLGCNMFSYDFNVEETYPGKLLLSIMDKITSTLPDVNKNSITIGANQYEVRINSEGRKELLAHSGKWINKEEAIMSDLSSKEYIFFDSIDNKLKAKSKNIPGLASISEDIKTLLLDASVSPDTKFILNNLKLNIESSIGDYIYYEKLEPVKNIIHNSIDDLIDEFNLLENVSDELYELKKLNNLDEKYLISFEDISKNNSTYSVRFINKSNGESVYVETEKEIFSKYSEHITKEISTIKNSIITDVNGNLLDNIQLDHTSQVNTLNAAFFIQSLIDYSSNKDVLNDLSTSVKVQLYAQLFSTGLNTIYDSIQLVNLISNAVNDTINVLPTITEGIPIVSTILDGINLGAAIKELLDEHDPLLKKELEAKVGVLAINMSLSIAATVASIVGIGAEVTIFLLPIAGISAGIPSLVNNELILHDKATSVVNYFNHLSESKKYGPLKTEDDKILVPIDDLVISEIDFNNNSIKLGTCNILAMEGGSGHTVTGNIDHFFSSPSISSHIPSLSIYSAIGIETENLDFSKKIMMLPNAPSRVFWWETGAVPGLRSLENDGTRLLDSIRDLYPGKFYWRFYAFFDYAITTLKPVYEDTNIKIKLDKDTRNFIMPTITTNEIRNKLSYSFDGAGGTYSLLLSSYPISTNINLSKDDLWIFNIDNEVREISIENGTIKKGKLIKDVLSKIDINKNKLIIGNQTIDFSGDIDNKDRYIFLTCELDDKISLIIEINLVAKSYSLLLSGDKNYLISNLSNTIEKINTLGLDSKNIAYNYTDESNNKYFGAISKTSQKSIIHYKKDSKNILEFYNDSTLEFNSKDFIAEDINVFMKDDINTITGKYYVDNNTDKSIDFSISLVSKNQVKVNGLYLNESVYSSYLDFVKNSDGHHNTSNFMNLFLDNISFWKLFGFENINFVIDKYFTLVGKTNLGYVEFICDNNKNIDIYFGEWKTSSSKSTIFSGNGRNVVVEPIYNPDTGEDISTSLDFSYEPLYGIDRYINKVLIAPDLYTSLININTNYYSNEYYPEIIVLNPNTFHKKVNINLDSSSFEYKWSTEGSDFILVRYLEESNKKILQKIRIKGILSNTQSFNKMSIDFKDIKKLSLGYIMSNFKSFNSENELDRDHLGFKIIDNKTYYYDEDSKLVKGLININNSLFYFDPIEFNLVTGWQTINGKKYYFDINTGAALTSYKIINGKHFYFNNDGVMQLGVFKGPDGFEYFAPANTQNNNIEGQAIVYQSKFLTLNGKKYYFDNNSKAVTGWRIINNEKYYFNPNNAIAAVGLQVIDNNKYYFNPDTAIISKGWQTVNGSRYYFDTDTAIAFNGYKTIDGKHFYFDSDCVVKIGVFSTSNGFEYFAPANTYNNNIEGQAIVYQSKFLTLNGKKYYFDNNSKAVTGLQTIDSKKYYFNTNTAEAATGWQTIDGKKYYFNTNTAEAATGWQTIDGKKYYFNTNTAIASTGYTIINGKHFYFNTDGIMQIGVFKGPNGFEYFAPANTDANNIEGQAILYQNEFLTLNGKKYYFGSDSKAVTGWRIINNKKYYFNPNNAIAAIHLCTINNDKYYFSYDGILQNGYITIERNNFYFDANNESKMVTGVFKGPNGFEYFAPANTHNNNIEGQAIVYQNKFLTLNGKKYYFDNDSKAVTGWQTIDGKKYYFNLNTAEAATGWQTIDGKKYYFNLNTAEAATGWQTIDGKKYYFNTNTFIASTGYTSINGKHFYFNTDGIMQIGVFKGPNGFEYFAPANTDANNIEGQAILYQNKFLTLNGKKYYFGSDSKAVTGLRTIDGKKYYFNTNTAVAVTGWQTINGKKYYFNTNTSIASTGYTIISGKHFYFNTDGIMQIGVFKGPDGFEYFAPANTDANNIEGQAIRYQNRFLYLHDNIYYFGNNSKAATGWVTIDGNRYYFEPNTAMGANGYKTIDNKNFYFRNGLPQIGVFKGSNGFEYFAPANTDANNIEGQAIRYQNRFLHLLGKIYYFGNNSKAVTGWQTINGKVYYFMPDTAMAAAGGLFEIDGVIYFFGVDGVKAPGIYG

CDT = biological target: T3, CDT (Clostridioides difficile, UniProt A0A9R0BM17+A0A9R0BM20); test: Inhibition of C. difficile toxin-induced cytotoxicity, CDT (actin depolymerization); conditions: same doses that protect cells from TcdB
T3 sequence (A0A9R0BM17 210-876): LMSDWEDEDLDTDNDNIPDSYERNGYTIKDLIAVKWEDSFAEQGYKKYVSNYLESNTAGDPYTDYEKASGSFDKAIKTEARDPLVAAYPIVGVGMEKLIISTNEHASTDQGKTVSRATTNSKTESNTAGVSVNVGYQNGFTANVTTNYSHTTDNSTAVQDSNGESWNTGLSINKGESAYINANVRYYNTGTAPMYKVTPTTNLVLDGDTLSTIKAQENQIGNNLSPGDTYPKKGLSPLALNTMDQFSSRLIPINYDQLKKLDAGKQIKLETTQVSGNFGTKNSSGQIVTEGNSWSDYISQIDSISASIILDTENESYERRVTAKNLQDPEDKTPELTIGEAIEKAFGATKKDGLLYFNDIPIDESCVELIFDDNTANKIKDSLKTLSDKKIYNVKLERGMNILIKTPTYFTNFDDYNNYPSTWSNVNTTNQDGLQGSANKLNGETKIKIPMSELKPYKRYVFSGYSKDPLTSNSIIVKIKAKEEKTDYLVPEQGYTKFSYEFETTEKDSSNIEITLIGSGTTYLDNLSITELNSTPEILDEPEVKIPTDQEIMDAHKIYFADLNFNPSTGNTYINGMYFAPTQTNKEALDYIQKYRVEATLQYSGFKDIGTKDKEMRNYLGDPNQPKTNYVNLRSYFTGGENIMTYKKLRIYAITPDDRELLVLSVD
T3 sequence (A0A9R0BM20 44-463): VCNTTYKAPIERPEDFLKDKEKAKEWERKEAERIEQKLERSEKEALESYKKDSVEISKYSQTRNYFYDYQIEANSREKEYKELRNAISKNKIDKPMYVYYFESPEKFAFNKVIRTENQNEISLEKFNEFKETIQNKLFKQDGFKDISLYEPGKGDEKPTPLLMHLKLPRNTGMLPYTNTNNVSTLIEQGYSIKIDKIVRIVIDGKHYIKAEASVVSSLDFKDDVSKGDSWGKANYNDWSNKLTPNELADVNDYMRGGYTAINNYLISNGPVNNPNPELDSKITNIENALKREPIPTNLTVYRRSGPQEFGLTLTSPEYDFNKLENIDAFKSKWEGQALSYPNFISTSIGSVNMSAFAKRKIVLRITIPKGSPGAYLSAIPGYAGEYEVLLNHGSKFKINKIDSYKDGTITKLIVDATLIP
Protocol: Cells were stained with 1 uM Hoechst for 30 min, then combined photos were taken for each compound at a concentration corresponding to maximum protection from TcdB using a 10× objective and appropriate filter sets for Hoechst and Alexa488 fluorescence (Zeiss).

Rac1 glucosylation = test: Intracellular Rac1 glucosylation Western blot; type: cell-based, human; conditions: IMR-90 cells, niclosamide 15 min then TcdB, harvested 1 h later
Protocol: (§1) FIG. 2. […] (a) Representative Western blot image for intracellular Rac1 glucosylation. […] Cells were harvested in lysis buffer 1 h later and processed for Western blot as described in Online Methods. […] (b) In vitro GTD glucosyltransferase assay. […] Activity was measured as described in the Online Methods. (c) In vitro auto-processing assay.

TcdB [4] = biological target: T1, TcdB; conditions: mammalian cells expressing all three known receptors
Target sequence in this assay (P18177 2-2366 limits assumed): as the sequence (P18177 2-2366 limits assumed) above
Protocol: TcdB binding to Vero cells was assessed as described earlier with minor modifications(57). […] Mixtures were then added to confluent cultures of pre-chilled Vero cells and plates were incubated on ice for 45 min. Plates were then washed 3 times with cold PBS and harvested by scraping. Membranes were isolated, and samples analyzed by Western blot as previously described (57).

CaCo-2 cells = test: CaCo-2 monolayer integrity / trans-epithelial resistance after TcdB; type: cell-based, human
TcdB APD domain = biological target: T4, TcdB APD domain (Clostridioides difficile, UniProt P18177); test: In vitro inositol hexakisphosphate-induced autoprocessing (cysteine protease) assay; type: biochemical, C. difficile; conditions: up to 10 μM niclosamide
T4 construct: Cell lysates were prepared as described for full-length TcdB; made in house; host or cells: Bacillus megaterium
Excerpt: Cleavage was visualized by electrophoresing the samples on SDS polyacrylamide gels and staining with Coomassie Blue R250.

IMR90 cells = test: Lysotracker assay, endosomal pH neutralization; type: cell-based, human; conditions: pre-treating cells
Protocol: Endosomal pH neutralization was assayed essentially as described by Slater et al. (55); IMR90 cells in complete EMEM were plated at 14,000 cells/well (˜95% confluency). After 24 h the media was changed to SFM for 60 minutes, then compound was added to 40 μM and incubated at 37° C. for 2 h. Lysotracker red DND-99 and Hoechst (Life Technologies) were added to 0.1 μM and 1 μM, respectively, and incubated for 60 minutes. Excess dye was removed by media change and the fluorescence at ex/em 574/594 was read on an Envision plate reader (Perkin Elmer). Representative cell images were taken using a Zeiss Axiovert fluorescence microscope using DAPI and Texas Red filters to visualize the Hoechst and Lysotracker staining, respectively.

[5] = biological target: T5, TcdB glucosyltransferase domain (GTD) (Clostridioides difficile, UniProt P18177); test: In vitro GTD glucosyltransferase assay; type: biochemical, C. difficile; conditions: up to 10 μM niclosamide, n=3
T5 construct: The TcdB glucosyltransferase domain (GTD); made in house
Protocol: as §1
For each reaction containing 10 nM GTD and 25 μM UDP-glucose, compound was added (1% final DMSO) and preincubated 30 minutes, followed by addition of gstRac1 to 0.8 μM. The reaction was stopped after a 60 min reaction time with an equal volume of Laemmli loading buffer plus β-mercaptoethanol (Bio-Rad, Mississauga. ON), heated to 90° C. before immediately loading on an SDS polyacrylamide gel. […]
Reactions were started with the simultaneous addition of 2.5 μl each of GST-Rac1 (20 μM final) and a mixture of 0.5 μCi of UDP-[6 ^3H]-glucose (0.5 μM final) and cold UDP-glucose (19.5 μM final). […] The beads were allowed to settle overnight at room temperature to increase the signal to background ratio before being analyzed on a TopCount NXT scintillation counter (PerkinElmer). Results were analyzed using GraphPad Prism 5.0.
Experiments were performed as per the manufacturer's instructions. […] Results were analyzed with SoftMax Pro 6.2.2 and GraphPad Prism 5.0.

C. difficile [6] = test: microbe, parasite or virus in culture; type: cell-based
[7] = tested on: C. clostridioforme ATCC25537; test: organism not typed; type: cell-based
C. sporogenes ATCC3584 = test: microbe, parasite or virus in culture; type: cell-based; conditions: Clostridium sporogenes
C. difficile [8] = test: microbe, parasite or virus in culture; type: cell-based; remark: listed apart in the source
C. difficile [9] = type: in vivo, mice
TcdB027 = TcdB027 (Clostridioides difficile, UniProt A0A9R0CDJ3); type: cell-based, C. difficile
[10] = rats; cited from earlier work

Structure (SMILES): O=C(Nc1cc(Cl)cc(Cl)c1O)c1c(O)c(Cl)cc(Cl)c1Cl [oxyclozanide]
- inhibition at 40 µM (TcdB [1]): 43%

Structure (SMILES): O=C(Nc1ccc([N+](=O)[O-])cc1Cl)c1cc(Cl)ccc1O [niclosamide]
- TcdB-induced necrosis (TcdB [2]): inhibited
- direct binding interaction with TcdB (thermal stability) (TcdB [3]): no evidence for a direct binding interaction
- protection from TcdA-induced cell rounding (TcdA): completely protected
- IC50 (TcdA): 500 ± 100 nM
- inhibition at 40 µM (TcdB [1]): 71%
- Protection from TcdB-induced cell-rounding (extent) (TcdB [1]; human IMR-90 fibroblasts co-incubated with niclosamide and TcdB): complete
- protection from CDT-induced damage (depolymerization of the actin cytoskeleton) (CDT): completely protected
- Rac1 glucosylation in cells (Rac1 glucosylation): dose-dependently inhibits
- TcdB binding to the cell surface (TcdB [4]): did not affect
- TcdB-induced reduction in Phalloidin staining (CaCo-2 cells; Caco-2 cells): prevented
- TcdB-induced disruption of monolayer integrity (CaCo-2 cells; co-treatment with TcdB, confluent CaCo-2 monolayer): prevented
- Release of GTD by the APD domain (autoprocessing) (TcdB APD domain): unaffected
- Lysotracker fluorescent staining (endosomal pH) (IMR90 cells): reduces Lysotracker fluorescent staining
- inhibition of GTD enzymatic activity in vitro [5]: no direct inhibition

Structure (SMILES): CCc1c(Cl)c(O)c(Cl)c(O)c1C(=O)O[C@H]1[C@H](O)[C@H](OC)[C@H](OC/C2=C\C=C\C[C@H](O)/C(C)=C/[C@H](CC)[C@@H](O[C@@H]3OC(C)(C)[C@@H](OC(=O)C(C)C)[C@H](O)[C@@H]3O)/C(C)=C/C(C)=C/C[C@@H]([C@@H](C)O)OC2=O)O[C@@H]1C [Fidaxomicin]
- MIC (C. difficile [6]): 0.06 μg/mL and 0.06^4 μg/mL
- MIC (C. difficile [6]; Clostridioides difficile): 0.12 µg/mL (≈ 0.113 µM)

Structure (SMILES): CN[C@H](CC(C)C)C(=O)N[C@H]1C(=O)N[C@@H](CC(N)=O)C(=O)N[C@H]2C(=O)N[C@H]3C(=O)N[C@H](C(=O)N[C@H](C(=O)O)c4cc(O)cc(O)c4-c4cc3ccc4O)[C@H](O)c3ccc(c(Cl)c3)Oc3cc2cc(c3O[C@@H]2O[C@H](CO)[C@@H](O)[C@H](O)[C@H]2O[C@H]2C[C@](C)(N)[C@H](O)[C@H](C)O2)Oc2ccc(cc2Cl)[C@H]1O [Vancomycin]
- MIC [7]: 4 µg/mL (≈ 2.76 µM)
- MIC (C. sporogenes ATCC3584): 8 µg/mL (≈ 5.52 µM)
- MIC (C. difficile [8]): 2 µg/mL (≈ 1.38 µM)
- MIC (C. difficile [8]; Clostridioides difficile): 1 µg/mL (≈ 0.69 µM)

Structure (SMILES): O=C(Nc1ccc([N+](=O)[O-])cc1Cl)c1cc(Cl)ccc1O [NEN, niclosamide ethanolamine]
- MIC [7]: > 19 µg/mL
- survival of recurrence (C. difficile [9]; NEN 50 mg/kg): all NEN-treated mice survived recurrence
- survival from C. difficile challenge (C. difficile [9]; NEN 50 mg/kg oral gavage, vancomycin 0.5 mg/mL in drinking water, more than 60% of control moribund): all mice in the NEN group survived
- diarrhea scores at recurrence (C. difficile [9]; mouse, in vivo): less severe diarrhea scores
- protection against TcdB derived from hypervirulent strains (TcdB027): protected
- IC50 (TcdA): 550 ± 80 nM
- median oral lethal dose (LD50) [10]: 10,000 mg/kg body weight
- TEER assay, dose dependence (CaCo-2 cells; Caco-2 cell monolayers): dose-dependently protects
- MIC (C. sporogenes ATCC3584): > 19 µg/mL

Structure (SMILES): Cc1cc(C(C#N)c2ccc(Cl)cc2)c(Cl)cc1NC(=O)c1cc(I)cc(I)c1O (stereo not shown) [closantel]
- inhibition of TcdB-induced cell rounding (TcdB [1]; high-throughput screen, libraries screened at 40 μM, IMR90 cells): 60%
